Several values for one entry are separate records, joined by “and”; a condition that tells them apart may be missing. Equal entries are not always repeated. Activity calls are given as the source filed them.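 Rule for the calls: active = compounds giving half or more protection of infected cells from virus-caused growth loss, again on retest; inactive = the rest.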
System: CEM cells HIV-1 protection, formazan growth assay
Experiment: NCI AIDS Antiviral Assay
Settings: for IC50: measured here: growth of uninfected CEM cells
In short: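 Protection of CEM cells against HIV-1 was scored from cell growth (soluble formazan) across five concentrations, with parallel uninfected cells. Lack of protection may reflect toxicity.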

## Nc1ccccc1/C(O)=C1/CCOC1=O
  EC50: > 7.08 µM
  IC50: > 7.08 µM

## CC(C)CCCC(C)[C@H]1CC[C@H]2[C@@H]3CC[C@H]4C[C@@H](CCC=C(c5cc(Cl)c(OCc6cccc(B(O)O)c6)c(C(=O)O)c5)c5cc(Cl)c(OCc6cccc(B(O)O)c6)c(C(=O)O)c5)CC[C@]4(C)[C@H]3CC[C@]12C (some centres undefined)
  EC50: 138 µM
  IC50: > 200 µM

## CCCCc1ccc(C#CC#Cc2ccc(CCCC)s2)s1
  EC50: > 200 µM
  IC50: > 200 µM

## CCCCCC=C(c1cc(Cl)c(OC)c(C(=O)O)c1)c1cc(Cl)c(OC)c(C(=O)O)c1
  EC50: 129 µM and > 126 µM
  IC50: 155 µM and 83.2 µM

## c1ccc(CCCC2Sc3cccc4cccc(c34)S2)cc1
  EC50: > 11.7 µM
  IC50: > 11.7 µM

## CC(=O)c1ccc(OCC(O)CO)cc1 (centres undefined)
  EC50: > 617 µM
  IC50: > 617 µM

## O=C1CC(=O)N(C=C2C(=O)NC(=O)NC2=O)C(=S)N1
  EC50: > 200 µM
  IC50: > 200 µM

## C/C(=N\NC(N)=O)C(CN1CCCCC1)C(c1ccccc1)c1c(O)c2ccccc2oc1=O (centres undefined)
  EC50: > 87.1 µM
  IC50: 46.8 µM

## COc1cc(CNCc2cc(OC)c(OC)c(OC)c2)cc(OC)c1OC
  EC50: > 200 µM
  IC50: > 200 µM

## Cc1cc(N(CCC#N)CCC#N)ccc1/C=C(\NC(=O)/C=C/c1ccccc1)C(=O)NN
  outcome: inactive

## CCOc1cccc2ccc[n+](CC)c12
  EC50: > 251 µM
  IC50: 25.1 µM

## C[N+](C)(C)CC(=O)N/N=C(/CC1OC(=O)c2ccccc21)c1ccccc1O (centres undefined)
  EC50: > 120 µM
  IC50: 77.6 µM

## Cc1cc(OP2(=O)NCc3ccncc3O2)ccc1Cl (centres undefined)
  EC50: > 200 µM
  IC50: > 200 µM

## C=CCSCCOCn1cc(C)c(=O)[nH]c1=O
  EC50: > 200 µM
  IC50: > 200 µM

## CC(C)(NC(=O)OCc1ccccc1)C(=O)OC(=O)C(C)(C)NC(=O)OCc1ccccc1
  EC50: > 200 µM
  IC50: > 200 µM

## CCOC(=O)N1CCN(C=S)CC1
  EC50: > 1230 µM
  IC50: > 1230 µM

## C/C(=N\NC(=S)N(C)C)c1cccnn1
  EC50: > 200 µM
  IC50: 0.355 µM

## CCOC(=O)C1=C(Nc2ccc(Cl)c(Cl)c2)OC/C1=N\NS(=O)(=O)c1ccc(C)cc1
  EC50: > 74.1 µM
  IC50: 64.6 µM

## C[C@]12CC[C@H]3[C@@H](CCC4=C/C(=N/OCCN5CCCCC5)CC[C@@]43C)[C@@H]1CC[C@@H]2O
  EC50: > 200 µM
  IC50: 4.17 µM

## COc1ccc2c(O)c(Oc3ccc(Cl)cc3)c(=O)oc2c1
  outcome: inactive

## CC1CCC2C(C)C3C(CC4C5CC=C6CC(O)CCC6(C)C5CCC43COC(=O)c3ccccc3)N2C1 (centres undefined)
  EC50: > 69.2 µM
  IC50: > 69.2 µM

## COc1ccc(/C=C(/C(C)=O)C(=O)c2ccccc2)cc1
  EC50: > 129 µM
  IC50: 38 µM

## NC(S(=O)(=O)O)S(=O)(=O)O
  EC50: > 200 µM
  IC50: 91.2 µM

## Cc1nnc2n1N=C(CC(=O)c1ccc(O)cc1O)CN2N
  EC50: > 832 µM
  IC50: > 832 µM

## COc1ccc(N2C(=O)/C(=C/c3ccc(N(CCC#N)CCC#N)cc3)N=C2c2ccccc2)cc1
  EC50: > 200 µM
  IC50: > 200 µM

## COc1ccc(/C=N/Nc2nc(C)c(C)s2)cc1
  EC50: > 100 µM
  IC50: > 100 µM

## COc1ccc(C[C@H]2COC(=O)[C@@H]2Cc2ccc(Br)cc2)cc1OC
  EC50: > 200 µM
  IC50: 24.5 µM

## CCCCCCCCCCCCCCCCCCC1=C(O)C(=O)C=C(OC)C1=O
  EC50: > 200 µM
  IC50: 49 µM

## NC(CCc1nc(-c2cccc([N+](=O)[O-])c2)cs1)C(=O)O (centres undefined)
  outcome: inactive

## COCC12CN(C)C3C4C(OC)C1C3(C(OC)CC2O)C1CC2(O)C(OC)C(O)C4(OC(C)=O)C1C2OC(=O)c1ccccc1 (centres undefined)
  outcome: inactive

## CCCCCNC(=O)CCCCCCCCCCCNC(=O)CCCCCCCCCCN1C=CC(=CC=C2C=CC(=O)C=C2)C=C1
  outcome: inactive

## CC(C)NC(=O)OCCN=C1c2ccccc2CCc2ccccc21
  EC50: > 200 µM
  IC50: 27.5 µM

## O=C(O)C12C(=O)NC(=O)C1(C(=O)O)C21CCCCC1 (centres undefined)
  EC50: > 933 µM
  IC50: > 933 µM

## COc1cc2c(c(O)c1O)C(=O)C1CCC(=O)N1C2c1cccc2ccccc12 (centres undefined)
  EC50: > 50.1 µM
  IC50: 35.5 µM

## CC(C)(C[NH-])C[NH-].[Cl][Pt+2][Cl]
  EC50: > 676 µM
  IC50: 2.04 µM

## CC(C)(C)NC1C2CCC(C)(C1O)C2(C)C (centres undefined)
  EC50: > 200 µM
  IC50: > 200 µM

## COc1ccc(Nc2nc3c([nH]2)c(=O)n(C)c(=O)n3C)cc1
  EC50: > 200 µM
  IC50: > 200 µM

## CCSSc1ccccc1C(=O)NC(CC)CO (centres undefined)
  EC50: > 200 µM
  IC50: 5.01 µM

## C(C[P+](c1ccccc1)(c1ccccc1)c1ccccc1)=C(c1ccccc1)c1ccccc1
  EC50: > 200 µM
  IC50: 1.05 µM

## COc1c2cc([N+](=O)[O-])cc1CNC(=O)CN1CCOCCOCCN(CCOCCOCC1)CC(=O)NC2
  EC50: > 100 µM
  IC50: > 100 µM

## CN(C)CC1CN(C(=O)Nc2ccccc2)C(=N)O1 (centres undefined)
  EC50: > 200 µM
  IC50: > 200 µM

## CNC(=O)C(C)Oc1ccc(OCC2CCCCC2)cc1 (centres undefined)
  EC50: > 170 µM
  IC50: 30.2 µM

## Cc1cc(C)nc(SC(F)(F)c2nc3ccccc3o2)n1
  outcome: active

## Cc1cnc2sn(-c3ccc(Oc4ccccc4)cc3)c(=O)c2c1
  EC50: > 200 µM
  IC50: 10 µM

## O=C(/C=C\c1cccc2ccccc12)c1ccc(Br)cc1
  EC50: > 3.09 µM
  IC50: > 3.09 µM

## CCOP(=O)(OCC)C(c1ccc(F)cc1)N(C(=O)NC(F)(F)F)c1ccc(OC)cc1 (centres undefined)
  EC50: > 200 µM
  IC50: > 200 µM

## CN1CN(c2ccccc2)C2(CCN(CCCC(=O)c3cccs3)CC2)C1=O
  EC50: > 200 µM
  IC50: 38.9 µM

## CC(=O)/C=C(\c1ccccc1)c1c(O)c2ccccc2oc1=O
  EC50: > 200 µM
  IC50: 141 µM

## N#CC1CC2(C1)OCCS2 (centres undefined)
  outcome: inactive

## O=c1c(-c2c(-c3ccccc3)oc3ccc(Cl)cc3c2=O)c(-c2ccccc2)oc2ccc(Cl)cc12
  EC50: > 200 µM
  IC50: > 200 µM

## O=S(=O)(O)c1cc(N/N=C/c2cc(S(=O)(=O)O)c3cccnc3c2O)ccc1/C=C/c1ccc(N/N=C/c2cc(S(=O)(=O)O)c3cccnc3c2O)cc1S(=O)(=O)O
  EC50: 13.5 µM
  IC50: 129 µM

## Cn1nc(-c2ccccc2)c(C(=O)/C=C/c2ccc(F)cc2)c(N2CCCCC2)c1=O
  EC50: > 18.6 µM
  IC50: > 18.6 µM

## Cc1cccc(Nc2nc(NNC(=O)Cc3ccccc3)nc(NNC(=O)c3ccncc3)n2)c1
  EC50: > 100 µM
  IC50: > 100 µM

## CCCCOC(=O)NC(Nc1cccc(C(F)(F)F)c1)(C(F)(F)F)C(F)(F)F
  EC50: > 200 µM
  IC50: 50.1 µM

## N#Cc1c2ccc([N+](=O)[O-])cc2c(=O)n2c1[nH]c1ccc(C(F)(F)F)cc12
  EC50: > 200 µM
  IC50: 1.91 µM

## CCOc1ccc2nc3nc(=O)[nH]c(C)c3c(NC(C)(CO)CO)c2c1
  EC50: > 200 µM
  IC50: > 200 µM

## C/C(=N\NC(=O)c1ccncc1)c1cccc(/C(C)=N/NC(=O)c2ccncc2)n1.O=S(=O)([O-])[O-].[Fe+2]
  EC50: > 200 µM
  IC50: 16.2 µM

## C[C@]12CCNC(=O)C=C1CC[C@@H]1C2CC[C@@]2(C)C1CC[C@@H]2OC(=O)COc1ccc(N(CCCl)CCCl)cc1 (some centres undefined)
  outcome: inactive

## O=C(Cc1ccccc1)NN1C(=O)C(Cl)C1c1ccccc1 (centres undefined)
  EC50: > 31.6 µM
  IC50: > 31.6 µM

## CCCNC(=O)N(C)S(=O)(=O)c1ccc(Cl)cc1
  outcome: inactive

## CC(=O)Nc1ccc(Nc2cc(=O)n(C)c(=O)[nH]2)cc1
  EC50: > 200 µM
  IC50: > 200 µM

## CSCCCNC(=O)c1csc(-c2csc(CCNC(=O)CNC(=O)CNC(=O)CNC(=O)OC(C)(C)C)n2)n1
  EC50: > 407 µM
  IC50: > 407 µM

## O=C1Cn2c(c3ccccc3nc2=O)N1
  EC50: > 10 µM
  IC50: > 10 µM

## COc1ccc(CCNC(=O)Cc2ccccc2CCO)cc1OC
  EC50: > 200 µM
  IC50: > 200 µM

## CCC(CC)(CO)CNc1cc(Cl)nc(N)n1
  EC50: > 200 µM
  IC50: > 100 µM

## CC(=O)NNc1nc(C)c(C(/C=C/c2ccc3c(c2)OCO3)=N/NC(=O)c2ccncc2)s1
  EC50: > 50.1 µM
  IC50: > 50.1 µM

## COc1cc2oc(=O)cc(C)c2cc1OC
  EC50: > 200 µM
  IC50: > 200 µM

## C1CSC(=[N+]2CC[N+](=C3SCCS3)CC2)S1
  outcome: inactive

## O=C(Nn1c(-c2ccccc2)nc2ccccc2c1=O)c1cccc([N+](=O)[O-])c1
  EC50: > 200 µM
  IC50: 166 µM

## CCC1(NC(=O)CN)C(=O)NC(=O)NC1=O
  EC50: > 200 µM
  IC50: > 200 µM

## CCOC(=O)N1C2C=C(C)C(C3C(C)C(=O)N31)N(C(=O)c1ccccc1)O2 (centres undefined)
  EC50: > 355 µM
  IC50: > 355 µM

## CN1N=C(c2ccncc2)OC1c1ccccc1F (centres undefined)
  EC50: > 200 µM
  IC50: 129 µM

## CCCN(CCC)C(=S)N/N=C(/C)c1ccccc1O
  EC50: > 200 µM
  IC50: 15.8 µM

## NC1=NN(c2ccccc2)C(=O)C1/C(=N\NC(=O)c1cc2ccccc2cc1O)C(=O)Nc1ccc(Cl)c(Cl)c1 (centres undefined)
  EC50: > 45.7 µM
  IC50: > 45.7 µM

## NS(=O)(=O)c1cc2c(cc1Cl)NC=NS2(=O)=O
  EC50: > 851 µM
  IC50: > 851 µM

## COC(=O)[C@@H]1Cc2c([nH]c3ccccc23)[C@H](c2ccccc2)N1
  outcome: inactive

## Cc1ccc2nc(NC(=O)C(=O)C(C#N)c3nc4ccccc4s3)sc2c1 (centres undefined)
  EC50: > 66.1 µM
  IC50: > 66.1 µM

## C[N+]1(C)CC2C3C=C(I)C(C3)C2C1 (centres undefined)
  EC50: > 214 µM
  IC50: > 214 µM

## COCN(C)c1nc(N(C)C)nc(N(C)C)n1
  EC50: > 100 µM
  IC50: 70.8 µM

## Cn1cc2c(=O)n3ncn(-c4ccc(Br)cc4)c3nc2n1
  EC50: > 200 µM
  IC50: > 200 µM

## CCC12CC(c3ccccc3)C(C(=O)N1)C(=O)N2 (centres undefined)
  EC50: > 200 µM
  IC50: > 200 µM

## CNCCS(=O)(=O)O
  EC50: > 200 µM
  IC50: > 200 µM

## CCOC(=O)CC[C@H](NC(=O)c1nc[nH]c1[N+](=O)[O-])C(=O)OCC
  EC50: > 200 µM
  IC50: > 200 µM

## CC1CN=C(NS(=O)(=O)c2cc(C(=O)Nc3ccc(Cl)cc3)c(Cl)cc2S)NN1 (centres undefined)
  EC50: > 200 µM
  IC50: 14.8 µM

## C=CCOc1ccc(C2c3c([nH][nH]c3=O)CC(O)(OCC)C2C(=O)OCC)cc1OC (centres undefined)
  EC50: > 200 µM
  IC50: > 200 µM

## COc1ccc2[nH]c(C[P+](c3ccccc3)(c3ccccc3)c3ccccc3)cc2c1
  EC50: > 200 µM
  IC50: 12 µM

## CCOCc1cc(=O)c2cc3c(cc2o1)OC(C)(C)CC3
  outcome: inactive

## COc1cc2c(cc1OC)CN1CCc3cc(OC)c(OC)cc3[C@@H]1C2
  EC50: > 200 µM
  IC50: 145 µM

From PubChem BioAssay AID179 (DTP/NCI, 2004)
